# According to patent US9977309B2, “Electrophoretic fluid” (Merck Patent GmbH, priority 2013, dated 2018):
# Test: Saturation solubility of dyes in decane
# Type: physicochemical
row,Saturation wt % in decane [wt %],SMILES
1,0.19,CCCCCCCCN(CCCCCCCC)c1ccc(/N=N/c2snc(C)c2C#N)c(NC(C)=O)c1 [Dye 4]
2,0.003,CCCCCCCCCCCCCCCCCCN(CCCCCCCCCCCCCCCCCC)c1cc(NC(C)=O)c(/N=N/c2c(C#N)cc([N+](=O)[O-])cc2C#N)cc1OC [Dye 1]
3,9.95,CCCCc1ccc(/N=N/c2ccc(N(CCCC)CCCC)cc2)cc1 [Dye 7]
4,3.72,CCCCCCCCCCCCCCc1ccc(/N=N/c2c(C)cc(=O)n(CC(CC)CCCC)c2O)cc1 (stereo not drawn) [Dye 6]
5,10.50,CCCCCCCCN(CCCCCCCC)c1ccc(/N=N/c2ccc([N+](=O)[O-])cc2)c(C)c1 [Dye 8]
6,1.03,CCCCCCCCCCCCCCc1ccc(/N=N/c2c(C)c(C#N)c(=O)n(CC(CC)CCCC)c2O)cc1 (stereo not drawn) [Dye 5]
